Laboratory results taken from ChEMBL document CHEMBL4145641, “Identification of Thiourea-Based Inhibitors of the B-Cell Lymphoma 6 BTB Domain via NMR-Based Fragment Screening and Computer-Aided Drug Design” (J Med Chem, 2018).

Assays:
KARPAS-422 = assay: Growth inhibition of human KARPAS422 cells incubated for 48 hrs by cell-titer-blue dye based assay; assay type: functional; details: KARPAS-422, 48 h
OCI-Ly1 = assay: Growth inhibition of human OCI-LY1 cells incubated for 48 hrs by cell-titer-blue dye based assay; assay type: functional; details: OCI-Ly1, 48 h
SUD4 = assay: Growth inhibition of human SUDHL4 cells incubated for 48 hrs by cell-titer-blue dye based assay; assay type: functional; details: SU-DHL-4, 48 h
SU-DHL-6 = assay: Growth inhibition of human SUDHL6 cells incubated for 48 hrs by cell-titer-blue dye based assay; assay type: functional; details: SU-DHL-6, 48 h
Toledo = assay: Growth inhibition of human Toledo cells incubated for 48 hrs by cell-titer-blue dye based assay; assay type: functional
[1] = Solubility in aqueous solution containing 1% DMSO; assay type: physicochemical
OCI-Ly7 = assay: Growth inhibition of human OCI-LY7 cells incubated for 48 hrs by cell-titer-blue dye based assay; assay type: functional; details: OCI-Ly7, 48 h
[2] = Growth inhibition of human OCI-Ly1-B50 cells incubated for 48 hrs by cell-titer-blue dye based assay; assay type: functional
[3] = molecular target: B-cell lymphoma 6 protein (Homo sapiens, UniProt P41182); assay: Binding affinity to fluorescently labeled recombinant BCL6 BTB domain (unknown origin) expressed in Escherichia coli BL21 (DE3) incubated for 10 mins by microscale thermophoresis method

Row | Compound | GI50 (KARPAS-422) | GI50 (OCI-Ly1) | GI50 (SUD4) | GI50 (SU-DHL-6) | GI50 (Toledo) | solubility [1] | GI50 (OCI-Ly7) | GI50 [2] | Kd [3]
1 | CC(C)NC(=O)Cn1cc(CN2CCN(C)CC2)c2ccc(NC(=S)NCCc3c[nH]c4ccccc34)cc21 | > 500 µM | > 500 µM | > 500 µM | > 500 µM | > 500 µM | > 1000 µM | > 500 µM | > 500 µM | –
2 | CN1CCN(Cc2cn(CC(=O)N3CCCCC3)c3cc(NC(=S)NCCc4c[nH]c5ccccc45)ccc23)CC1 | > 500 µM | 100 µM | 103 µM | 60 µM | > 500 µM | > 1000 µM | 33 µM | > 500 µM | –
3 | CC[C@H](C)[C@H](NC(=O)[C@H](CCC(=O)O)NC(=O)[C@H](Cc1cnc[nH]1)NC(=O)[C@H](NC(=O)[C@H](CO)NC(=O)[C@H](CCCNC(=N)N)NC(=O)CNC(=O)[C@H](C)NC(=O)[C@H](CCC(=O)O)NC(=O)[C@H](CCCCN)NC(=O)[C@@H](NC(=O)[C@@H](NC(=O)[C@H](C)NC(=O)[C@@H](NC(=O)[C@@H](N)CC(C)C)C(C)C)[C@@H](C)O)C(C)C)[C@@H](C)CC)C(=O)N1CCC[C@@H]1C(=O)N[C@@H](CCCNC(=N)N)C(=O)O | – | – | – | – | – | – | – | – | 30 µM
4 | CN1CCN(Cc2cn(CC(=O)N3CCN(C)CC3)c3cc(NC(=S)NCCc4c[nH]c5ccccc45)ccc23)CC1 | – | – | – | – | – | > 1000 µM | – | – | –
5 | CN1CCN(Cc2cn(CC(=O)N3CCOCC3)c3cc(NC(=S)NCCc4c[nH]c5ccccc45)ccc23)CC1 | > 500 µM | > 500 µM | > 500 µM | > 500 µM | > 500 µM | > 1000 µM | 193 µM | > 500 µM | –
6 | CCOC(=O)CNC(=O)Cn1cc(CN2CCN(C)CC2)c2ccc(NC(=S)NCCc3c[nH]c4ccccc34)cc21 | – | – | – | – | – | > 1000 µM | – | – | –
7 | O=C(O)CNC(=O)Cn1ccc2ccc(NC(=S)NCCc3c[nH]c4ccccc34)cc21 | > 500 µM | > 500 µM | > 500 µM | > 500 µM | > 500 µM | – | > 500 µM | > 500 µM | –
8 | CN1CCN(Cc2cn(CC(=O)NCC(=O)O)c3cc(NC(=S)NCCc4c[nH]c5ccccc45)ccc23)CC1 | > 500 µM | > 500 µM | > 500 µM | > 500 µM | > 500 µM | > 1000 µM | > 500 µM | > 500 µM | –
9 | CC1CN(C(=O)Cn2cc(CN3CCN(C)CC3)c3ccc(NC(=S)NCCc4c[nH]c5ccccc45)cc32)CCO1 (racemic) | > 500 µM | > 500 µM | > 500 µM | > 500 µM | > 500 µM | > 1000 µM | 116 µM | > 500 µM | –
10 | COC(=O)Cn1cc(CN2CCN(C)CC2)c2ccc(NC(=S)NCCc3c[nH]c4ccccc34)cc21 | > 500 µM | > 500 µM | > 500 µM | 100 µM | > 500 µM | – | > 500 µM | > 500 µM | –
11 | CCN(CC)C(=O)Cn1cc(CN2CCN(C)CC2)c2ccc(NC(=S)NCCc3c[nH]c4ccccc34)cc21 | – | – | – | – | – | > 1000 µM | – | – | –
